Here are results for 50 compounds from the RepoRT retention time repository.

This data set in a line: RP, Waters ACQUITY UPLC BEH C18, 50 × 2.1 mm, 1.7 µm, 40 °C, 0.6 mL/min, estimated dead time 0.18 min; A: water + 0.1% formic acid, pH 3; B: acetonitrile + 0.1% formic acid, pH 3; gradient (min/%B) 0/5 7/100 8/100. The note with it: stereoisomer not certain.

SMILES strings stand for the structures.

On to `CC(C)C1CCC2(C)C3CCC45CCCC4C2(CCC(=O)C2(C)COC4(C)CCC2O4)C1N5C3` (stereo not given), for which the LC retention time is 2.86 min.
Then `C=C(C)C1CCC2(C(=O)O)CCC3(C)C(CCC4C5(C)CCC(OC(=O)/C=C/c6ccc(O)c(O)c6)C(C)(C)C5CCC43C)C12` (stereo not given), with 5.65 min; and `CCC1CC2CC3(C(=O)OC)c4[nH]c5ccccc5c4CCN(C2OC)C13` (stereo not given), with 1.77 min; and `CC(C)=CC(O)C[C@@H](C)[C@H]1CC[C@@]2(C)C3C(=O)C=C4C(CCC(O)C4(C)C)[C@]3(C)CC[C@]12C` (stereo not given in full), with 4.38 min.
Under `COc1ccc2c(c1)CC1c3c(cc4c(c3-2)OCO4)CCN1C` (stereo not given) stands 2.15 min; under `O=C1c2c(O)cc(O)c(C3C(=O)c4c(O)cc(O)cc4OC3c3ccc(O)cc3)c2OC(c2ccc(O)c(O)c2)C1O` (stereo not given), 0.319 min.
Regarding `COC(=O)CC(C1=C2OC(=O)C(C(=O)CC(C)C)=C(O)C2(CC=C(C)C)CC(CC=C(C)C)C1(C)C)c1ccccc1` (stereo not given), the LC retention time is 6.83 min.
Then `CCN1CC2(COC(=O)c3ccccc3N)CCC(OC)C34C5CC6C(OC)CC(O)(C5C6OC)C(O)(C(OC)C23)C14` (stereo not given), with 2.4 min.
Under `O=C1CC(c2ccc(O)cc2)Oc2cc3c(c(O)c21)C(C(=O)c1ccc(O)cc1O)C(c1ccc(O)cc1)O3` (stereo not given) stands 2.78 min; under `C/C(=C\CC/C=C(\C)CC/C=C(\C)CCC(O)C(C)(O)CO)CC/C=C(\C)CCC(O)C(C)(C)O` (stereo not given), 4.79 min; under `COc1cc(CC(COC(C)=O)C(COC(=O)/C=C/c2ccc(O)c(O)c2)Cc2ccc(O)c(OC)c2)ccc1O` (stereo not given), 1.83 min.
Then `CCC1CN(C)CC2Cc3c([nH]c4ccccc34)C(=O)CC12` (stereo not given), with 1.71 min; and `C=C(C(=O)CC(C)C1CCC2(C)C3CCC4C(C)(C(=O)OC5OC(C)C(O)C(O)C5O)C(O)CCC45CC35CCC12C)C(C)C` (stereo not given), with 5.23 min; and `COc1cc2c(cc1OC)-c1c(OC)c(OC)cc3c1C(C2)N(C)CC3` (stereo not given), with 1.87 min.
As for `C=C[C@H]1CN2CCC3c4ccccc4NC3[C@H]2C[C@@H]1/C(=C\OC)C(=O)OC` (stereo not given in full), the LC retention time is 2.64 min.
Then `CC(CC[C@@H](C)[C@H]1CCC2C3C[C@H](OS(=O)(=O)O)[C@H]4C[C@H](OS(=O)(=O)O)C(OS(=O)(=O)O)C[C@]4(C)C3CC[C@@]21C)C(C)(C)C` (stereo not given in full), with 1.41 min.
Then `C=C(C)C12CC(C)C34OC(CCCCCCCCCCCCC)(OC1C3C1OC1(CO)C(O)C1(O)C(=O)C(C)=CC14)O2` (stereo not given), with 6.97 min; and `CC(=O)OC(C)(C)CCC(=O)[C@](C)(O)C1[C@H](O)C[C@@]2(C)C3CC=C4C(C[C@H](O)[C@@H](O)C4(C)C)[C@]3(C)C(=O)C[C@]12C` (stereo not given in full), with 3.06 min; and `C=C(C(=O)C(O)C(C)C1C(OC(C)=O)CC2(C)C3CC(O)C4C(C)C(=O)C=CC45CC35CCC12C)C(C)CO` (stereo not given), with 3.41 min.
With `COc1c(O)cc2c3c1C1(C=CC(=O)C=C1)CC3N(C)CC2` (stereo not given), the LC retention time was 0.738 min.
Under `CC(C)=CC1CC(C2CCC3(C)C4=CCC5C(C)(C)C(=O)CCC5(C)C4CC(C=O)=C23)C(O)O1` (stereo not given) stands 4.03 min.
Under `C=C(C(=O)C(O)C(C)C1C(OC(C)=O)CC2(C)C3CCC4C(C)C(=O)C=CC45CC35CCC12C)C(C)CO` (stereo not given) stands 4.1 min.
For `COC1=C(C)C(=O)O/C1=C1\OC2CCCN3C(C4CC(C)C(=O)O4)CCC3C2C1C` (stereo not given), the LC retention time was 1.55 min.
On to `CCC1C2CCCCN3CCC(C4C(C)C(=O)OC14)C23` (stereo not given), for which the LC retention time was 1.34 min.
Regarding `COc1cc2c3c(c1O)Oc1ccc(cc1)CC1c4c(cc(OC)c(O)c4Oc4ccc(cc4)CC3N(C)CC2)CCN1C` (stereo not given), the LC retention time is 1.44 min.
Then `CC(C)=CCc1c2c(c(O)c3c1OC14C(=CC5CC1C(C)(C)OC4(CC=C(C)C(=O)O)C5=O)C3=O)C=CC(C)(C)O2` (stereo not given), with 5.38 min.
Then `CCCC(CC(=O)O)C1=C2OC(=O)C(C(=O)CC(C)C)=C(O)C2(CC=C(C)C)CC(CC=C(C)C)C1(C)C` (stereo not given), with 6.51 min; and `COC(=O)C1=C2CCC3=C2C2(C1)C1(C)CCC4C(C)CN(CC1CC3)C42O` (stereo not given), with 2.17 min.
For `CC(C)=CCC1CC2(CC=C(C)C)C(O)=C(C(=O)C(C)C)C(=O)OC2=C(C(CC(=O)O)c2ccccc2)C1(C)C` (stereo not given), the LC retention time is 6.13 min.
Then `CC[C@@H]1CN(C)C[C@@]2(C(=O)OC)Cc3c([nH]c4ccccc34)C(=O)C[C@@H]12`, with 1.76 min; and `CCCCCCCCCCC/C=C\CC[C@@H]1CCC[C@@H](C)N1` [(2R,6S)-2-methyl-6-[(3Z)-pentadec-3-en-1-yl]piperidine], with 4.84 min; and `C[C@@H]1CC2(NCCS2)[C@]2(O)OC3C[C@@]4(C=O)C(CCC5C4CC[C@]4(C)C(C6=CC(=O)OC6)CC[C@]54O)CC3OC2O1` (stereo not given in full), with 0.611 min.
On to `CC(=O)OC1CC(O)C23COC(O)C1(C)C2CC(O)C1(C)C3=C(O)C(=O)C2(C)C(c3ccoc3)CC3OC312` (stereo not given), for which the LC retention time was 2.39 min.
Under `CC/C=C/CC(O)C(O)/C=C/C(O)CCCCCCCC(=O)O` (stereo not given) [(10E,15E)-9,12,13-trihydroxyoctadeca-10,15-dienoic acid] stands 2.6 min; under `CCN1CC2(COC(=O)c3ccccc3NC(=O)C(C)CC(=O)O)CCC(OC)C34C5CC6C(OC)CC(O)(C5C6OC)C(O)(C(OC)C23)C14` (stereo not given), 2.37 min; under `CCCC(CC(=O)O)C1=C2OC(=O)C(C(=O)C(C)CC)=C(O)C2(CC=C(C)C)CC(CC=C(C)C)C1(C)C` (stereo not given), 6.55 min.
Then `C/C(=C\C1CC(C2CCC34CC23C=CC2C3(C)CC=C5CC(c6ccccc6)OCC5(C)C3CC(O)C24C)C(=O)O1)CO` (stereo not given), with 5.22 min; and `COC(=O)[C@@]12C[C@@H]3C[C@H]([C@H](C)O)C1N(CCc1c2[nH]c2ccccc12)C3`, with 1.91 min.
`CC[C@H]1C[C@@H]2CN3CCc4c([nH]c5ccccc45)[C@](C(=O)OC)(C2)[C@H]13`: the LC retention time was 2.05 min.
Then `C=C1C(=O)C23C(O)CC4C(C)(C)CCCC4(CO)C2C(O)CC1C3O` (stereo not given), with 1.85 min; and `COc1cc2ccc(=O)oc2cc1OC` [6,7-dimethoxy-2H-chromen-2-one], with 1.87 min.
As to `COc1ccc(-c2oc3cc(O)c(OC)c(O)c3c(=O)c2OC)cc1`, the LC retention time was 3.08 min.
Under `CC(C)=CC1CC(C2CCC3(C)C4=CCC5C(C)(C)C(O)CCC5(C)C4CC(C=O)=C23)C(O)O1` (stereo not given) stands 5.19 min; under `C/C(=C/CC[C@H](C)[C@@H]1CC[C@]2(C)C3=CCC4C(C)(C)C(=O)CC[C@]4(C)C3CC[C@@]12C)C(=O)O` (stereo not given in full), 6.25 min; under `CC1CC(O)C2(C)C(CCC(O)C2(C)O)C1(C)CC(=O)c1ccoc1` (stereo not given), 2.35 min.
Take `COc1cc(/C=C/C(=O)OC2CC3(C)CCC2C3(C)C)ccc1O` (stereo not given): the LC retention time is 4.97 min.
For `CC[C@@H]1C(=O)N2CCc3c([nH]c4ccccc34)[C@H]2CC1/C(=C\OC)C(=O)OC` (stereo not given in full), the LC retention time was 2.38 min.
Then `CC[C@H]1NC2C[C@@]3(C(=O)N(OC)c4cc(OC)ccc43)C3OCC2C1[C@@H]3O` (stereo not given in full), with 1.32 min.
On to `CC1CC(C2CCC3N2CCCCC32CC(C)C(=O)O2)OC1=O` (stereo not given), for which the LC retention time was 1.07 min.
Then `CN1CCc2cc3c(c4c2C1CC41C=CC(=O)C=C1)OCO3` (stereo not given), with 1.08 min.
